{"source": "patent US20220326218A1", "about": "“COMPOSITION AND METHOD FOR INHIBITING BORC COMPLEX TO TREAT CANCERS WITH NF1 DEFICIENCY AND DYSREGULATED RAS SIGNALING” (THE TRUSTEES OF DARTMOUTH COLLEGE, priority 2019, published 2022)", "key": {"cleaved caspase-3": {"test_system": "cleaved caspase-3", "assay": "Immunofluorescence staining for cleaved caspase-3", "type": "cell-based, human", "settings": "U87-MG, 2 μM, 48 h", "experimental": "(§1) U87-MG cells were plated at a concentration of 50,000 cells/well onto precoated poly-D-lysine (PDL) coverslips (Neuvitro) in 24-well plates (Falcon) and allowed to adhere overnight. Medium was removed and replaced with treatment-laced media normalized to DMSO, and cells were treated for the indicated timepoints. At the time of collection, cells were washed with PBS and fixed with 4% paraformaldehyde without methanol (EMS) or 100% methanol (Fischer). Coverslips were washed with Tween20-containing PBS (PBST; Fischer). Following permeabilization with 0.5% Triton X-100 in PBS (Fischer), coverslips were blocked for 1 h at room temperature in IF Buffer (0.05% azide, 0.2% Triton X-100, 2% Normal Goat Serum or, for 8-OHG, Normal Donkey Serum). The following primary antibodies were used for 1 hour at room temperature unless specified: AlexaFluor 488 pre-conjugated anti-γ-H2AX (N1-431) mouse monoclonal (30 minutes; BD Biosciences), anti-cleaved caspase 3 (Asp175) rabbit polyclonal (Cell Signaling), anti-SQSTM1/p62 (D-3) mouse monoclonal (Santa Cruz), anti-8-Hydroxyguanosine goat polyclonal (1:200; Millipore), anti-LAMP1 (D4O1S) mouse monoclonal (O/N at 4° C.; Cell Signaling), anti-BNIP3L/Nix (D4R4B) rabbit monoclonal (O/N at 4° C.; Cell Signaling), anti-FLAG (M2) mouse monoclonal (2 hours at 37° C.; Sigma-Aldrich). […]"}, "proteasomal active sites": {"target": "T1, proteasomal active sites (Homo sapiens, UniProt P28072+P28074+Q99436)", "T1 construct": "endogenous in cells; host or cells: U87-MG", "assay": "MV-151 proteasome active site inhibition assay", "type": "cell-based", "settings": "U87-MG; Y102 2 μM 24 h; positive control 1 μM Bortezomib and 10 μM MG-132 2 h", "experimental": "U87-MG cells were plated at 500,000 cells/well in 6-well plates and allowed to adhere overnight (Falcon). Medium was removed and replaced with fresh medium containing Y102 or vehicle DMSO and treated for 24 h. As a positive control, one well was treated for 2 h with 1 μM Bz/10 μM MG-132.\nCells were collected after treatment by washing with PBS, harvested with trypsin plus agitation to detach cells, spun down in a centrifuge, and resuspended in PBS to wash. Cells were transferred to 1.5 mL microcentrifuge tubes, pelleted, and resuspended in 20 μL digitonin lysis buffer (50 mM Tris HCl pH 7.5, 250 mM sucrose, 2 mM EDTA, 1 mM ATP, 1 mM DTT, and 0.05% digitonin). Cells were mixed by pipetting, incubated on ice for 20 minutes, and the lysate was cleared by centrifugation. Protein concentrations were determined using a Bradford protein assay (Bio-Rad). 10 μg of protein lysate was incubated for 20 minutes with 20 μM MV-151 in a 37° C. water bath. 4× loading dye was added to the samples and proteins were separated by sodium dodecyl sulfate-polyacrylamide gel electrophoresis (SDS-PAGE) on a 4-15% polyacrylamide gradient gel (Bio-Rad). Gel was imaged on a Typhoon scanner at an excitation of 532 nm and an emission of 560 nm to detect MV-151 fluorescence. Following imaging, proteins were transferred to nitrocellulose. The blot was probed for α-Tubulin as a loading control. […]"}, "sequestosome-1 (p62)": {"test_system": "sequestosome-1 (p62)", "assay": "Immunofluorescence staining for p62", "type": "cell-based, human", "settings": "U87-MG, 24 h; 2 μM Y102, 50 μM HCQ; HCQ and Y102 compared with each other", "experimental": "as §1"}, "mitochondria": {"test_system": "mitochondria", "assay": "MitoTracker Red CMXRos staining of the mitochondrial network", "type": "cell-based, human", "settings": "U87-MG, 24 h; 2 μM Y102, 50 μM HCQ", "experimental": "For MitoTracker Red CMXRos staining, 30 minutes prior to collection medium was removed and replaced with medium containing MitoTracker Red CMXRos at a final concentration of 100 nM (Molecular Probes). Following staining, cells were washed with PBS and fixed with 4% paraformaldehyde without methanol. Cells were washed with PBST, then permeabilized with 0.5% Triton X-100 in PBS. When co-staining with another marker, the staining procedure continued with the blocking step; otherwise, cells were stained with 0.33 μg/mL DAPI in PBS and mounted onto slides in ProLong Gold (Life Technologies)."}, "BNIP3L/Nix": {"test_system": "BNIP3L/Nix", "assay": "Immunofluorescence staining for mitophagy receptor BNIP3L/Nix", "type": "cell-based, human", "settings": "U87-MG, 24 h; 2 μM Y102, 100 μM CoCl2; CoCl2 and Y102 compared with each other", "experimental": "as §1"}, "lysosomes": {"test_system": "lysosomes", "assay": "Immunofluorescence staining of lysosomes (LAMP1) and mitochondria (Tom20)", "type": "cell-based, human", "settings": "U87-MG, 2 μM, 16 h", "experimental": "as §1, with “Sigma-Aldrich). Following washes with PBST, cells were stained with goat anti-rabbit or goat anti-mouse AlexaFluor 488 or AlexaFluor 594 (or, for 8-OHG, donkey anti-goat AlexaFluor 488) secondary antibody at 1:800 for 1 hour at room temperature (Jackson ImmunoResearch).” for “Sigma-Aldrich).”\nAll confocal images were acquired on a Nikon AIRSi confocal microscope equipped with a 60× 1.4 NA oil objective, a DU4 detector unit, and Nikon Elements software. Otherwise, images were acquired on a Zeiss Axio Imager.Z1 equipped with a Zeiss EC Plan-NEOFLUAR 40× 1.3 NA oil objective, a Zeiss AxioCam MRm camera, a Lumen Dynamics Series 120 Q X-Cite Fluorescence Illuminator, and AxioVision SE64 Rel. […]"}}, "data": [{"smiles": "Cn1cnnc1S/C=C/C(=O)c1ccc(F)cc1", "note": "[Y102]", "values": [{"measurement": "amount of cleaved caspase-3 versus vehicle control", "setting": "cleaved caspase-3", "value": "No difference"}, {"measurement": "inhibition of the proteasomal subunits (MV-151 competitive binding)", "setting": "proteasomal active sites", "value": "not"}, {"measurement": "p62 expression compared to DMSO (immunofluorescence)", "setting": "sequestosome-1 (p62)", "value": "increased"}, {"measurement": "mitochondrial phenotype (perinuclear clustering)", "setting": "mitochondria", "value": "perinuclear clustering of the mitochondria"}, {"measurement": "expression/localization of BNIP3L/Nix on the mitochondria compared to DMSO control", "setting": "BNIP3L/Nix", "value": "increase"}, {"measurement": "localization of lysosomes", "setting": "lysosomes; LAMP1", "value": "perinuclear region"}, {"measurement": "lysosome expression", "setting": "lysosomes; LAMP1", "value": "increase"}, {"measurement": "colocalization between lysosomes and mitochondria", "setting": "lysosomes; LAMP1/Tom20, ratiometric analysis, confocal", "value": "observed"}]}]}
